Experimental data published in patent publication US8119630B2 (Arrow Therapeutics Limited, priority 2002, dated 2012).

Legend:
RSV [1] = assay: XTT assay, RSV-infected Hep-2 cells; assay type: cell-based, Respiratory Syncytial Virus (RSV); details: Table 2, Examples 75 to 82 and 125 to 184, Hep-2 cells infected with RSV, 6 days at 37° C.
Experimental: Examples 75 to 82 and 125 to 184 were tested according to the protocol described below.
(§1) The inner 60 wells of 96 well tissue culture plates were seeded with Hep-2 cells at 4×10^4 cells/well for compound activity and toxicity studies in 100 μl of medium and incubated at 37° C. overnight or until nearing confluency.
(§2) Cells were infected with 25 μl RSV previously titrated to give 80% cell kill. To each well 25 μM of test compound were added. The final DMSO concentration was 0.5%. Some 200 μl of sterile distilled water were added to the outer wells of the plate and incubated at 37° C. for 6 days. Some 0.25 μl/ml PMS were added to stock […] solution, final conc. 25 μM PMS. Then 25 μl warmed XTT/PMS solution were added to each well and incubated for 1 hour at 37° C.
Maximum OD450nm reading (uninfected, untreated control cells) corresponded to 100% inhibition. Minimum OD450nm readings (infected control cells) corresponded to 0% inhibition. Log 10 concentration was plotted against OD450nm and IC50 values were calculated from either reading 50% value from graph or using regression analysis.

Hep-2 cells = assay: Toxicity studies (XTT), Hep-2 cells; assay type: cell-based; set-up: TC50 (6d): unit not given beside the values; details: for TC50 (6d): Table 2, Examples 75 to 82 and 125 to 184, 6d, in µM
Experimental: as §1
as §2, with “Some 200 μl of sterile distilled water were added to the outer wells of the plate and incubated at 37° C. for 6 days.” left out

RSV [2] = assay: XTT assay, RSV-infected Vero cells; assay type: cell-based, Respiratory Syncytial Virus (RSV); details: Vero cells infected with RSV, m.o.i.≈0.2, 6 days at 33° C.
In short: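 Vero cells infected with RSV at m.o.i.≈0.2 in presence of serially ½-log diluted compound, incubated 6 days at 33 °C. Viability read by XTT/PMS (5 h, 37 °C) at OD450; uninfected untreated cells = 100%, infected controls = 0% inhibition. IC50 from graph or regression; parallel uninfected plates for toxicity.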

Vero cells = assay: Simultaneous toxicity investigation (XTT), Vero cells; assay type: cell-based; set-up: unit not given here; details: for TC50 (2d): Table 2, Examples 83 to 124, 2d; for TC50 (6d): Table 2, Examples 83 to 124, 6d
Experimental: The inner 60 wells of 96 well tissue culture plates were seeded with Vero cells at 3×10^4 cells/well (1×10^4 cells/well for toxicity studies) in 100 or 150 μl of medium and incubated at 37° C. overnight or until nearing confluency. For primary screen, 25 μl compounds were added directly to 100 μl medium in single wells to duplicate plates. A third plate was prepared for simultaneous toxicity investigation.
For follow-up investigation, 70 μl of compound in duplicate wells were added directly to culture medium at 3.2× final concentration and ½ log serially diluted down columns of plate. A duplicate plate was prepared for simultaneous toxicity investigation.
Cells were infected with 25 μl RSV to give m.o.i.≈0.2. […] Some 0.25 μl/ml PMS were added to stock XTT solution, final conc. […]. Then 25 μl warmed XTT/PMS solution were added to each well and incubated for 5 hours at 37° C. Plates were shaken (DynaTech Vari-Shaker) vigorously for 10 mins and allowed to cool for 15 mins before sealing. Absorbance at 450 nm was measured and data analysed using Microsoft Excel software.

[3] = human respiratory syncytial virus, 144 h
[4] = human respiratory syncytial virus, Vero, 144 h, read-out: XTT IC50 (uM), Table 2, Examples 83 to 124
[5] = Table 2, Examples 83 to 124, read-out: XTT IC50

Compound	TC50 (6d) (Hep-2 cells)	IC50 (RSV [1]; [3]) [µM]	other results
1-(2-Oxo-5-phenyl-2,3-dihydro-1H-benzo[e][1,4]diazepin-3-yl)-3-m-tolyl-urea [Example 141]	>50	–	IC50 (RSV [1]): 4.3 µM
5-Acetyl-2-ethoxy-N-(2-oxo-5-phenyl-2,3-dihydro-1H-benzo[e][1,4]diazepin-3-yl)-benzamide [Example 76a]	64	–	IC50 (RSV [1]): 3.5 µM
5-Methyl-furan-2-carboxylic acid (2-oxo-5-phenyl-2,3-dihydro-1H-benzo[e][1,4]diazepin-3-yl)-amide [Example 161]	60	–	IC50 (RSV [1]): 2 µM; TC50 (2d) (Hep-2 cells; Table 2, Examples 75 to 82 and 125 to 184, 2d): 100 µM
COc1cc(S(C)(=O)=O)ccc1C(=O)NC1N=C(c2ccccc2)c2ccccc2NC1=O (stereo not shown) [Example 75a, 4-Methanesulfonyl-2-methoxy-N-(2-oxo-5-phenyl-2,3-dihydro-1H-benzo[e][1,4]diazepin-3-yl)-benzamide]	–	2.4	–
COc1cc(S(C)(=O)=O)ccc1C(=O)N[C@H]1N=C(c2ccccc2)c2ccccc2NC1=O [Example 75b, (S)-4-Methanesulfonyl-2-methoxy-N-(2-oxo-5-phenyl-2,3-dihydro-1H-benzo[e][1,4]diazepin-3-yl)-benzamide]	>50	0.6	–
CCOc1ccc(C(C)=O)cc1C(=O)N[C@H]1N=C(c2ccccc2)c2ccccc2NC1=O [Example 76b, (S)-5-Acetyl-2-ethoxy-N-(2-oxo-5-phenyl-2,3-dihydro-1H-benzo[e][1,4]diazepin-3-yl)-benzamide]	>50	1.2	–
O=C(NC1N=C(c2ccccc2)c2ccccc2NC1=O)c1cc(F)cc2c1OCOC2 (stereo not shown) [Example 77a, 6-Fluoro-4H-benzo[1,3]dioxine-8-carboxylic acid (2-oxo-5-phenyl-2,3-dihydro-1H-benzo[e][1,4]diazepin-3-yl)-benzamide]	>50	–	IC50 (RSV [1]): 4.6 µM
O=C(N[C@H]1N=C(c2ccccc2)c2ccccc2NC1=O)c1cc(F)cc2c1OCOC2 [Example 77b, (S)-6-Fluoro-4H-benzo[1,3]dioxine-8-carboxylic acid (2-oxo-5-phenyl-2,3-dihydro-1H-benzo[e][1,4]diazepin-3-yl)-amide]	33.2	0.5	–
COc1cc(C(F)(F)F)ccc1C(=O)N[C@H]1N=C(c2ccccc2)c2ccccc2NC1=O [Example 78, (S)-2-Methoxy-N-(2-oxo-5-phenyl-2,3-dihydro-1H-benzo[e][1,4]diazepin-3-yl)-4-trifluoromethyl-benzamide]	32.5	2.7	–
O=C(NC1N=C(c2ccccc2)c2ccccc2NC1=O)c1cc(F)c(F)cc1F (stereo not shown) [Example 79a, 2,4,5-Trifluoro-N-(2-oxo-5-phenyl-2,3-dihydro-1H-benzo[e][1,4]diazopin-3-yl)-benzamide]	65	–	IC50 (RSV [1]): 8 µM
O=C(N[C@H]1N=C(c2ccccc2)c2ccccc2NC1=O)c1cc(F)c(F)cc1F [Example 79b, (S)-2,4,5-Trifluoro-N-(2-oxo-5-phenyl-2,3-dihydro-1H-benzo[e][1,4]diazepin-3-yl)-benzamide]	>50	5.8	–
O=C(NC1N=C(c2ccccc2)c2ccccc2NC1=O)c1ccccc1O (stereo not shown) [Example 80a, 2-Hydroxy-N-(2-oxo-5-phenyl-2,3-dihydro-1H-benzo[e][1,4]diazepin-3-yl)-benzamide]	33	8.7	–
O=C(N[C@H]1N=C(c2ccccc2)c2ccccc2NC1=O)c1ccccc1O [Example 80b, (S)-2-Hydroxy-N-(2-oxo-5-phenyl-2,3-dihydro-1H-benzo[e][1,4]diazepin-3-yl)-benzamide]	>50	2	–
O=C(NC1N=C(c2ccccc2)c2ccccc2NC1=O)c1cccc2cc[nH]c12 (stereo not shown) [Example 81a, 1H-Indole-7-carboxylic acid (2-oxo-5-phenyl-2,3-dihydro-1H-benzo[e][1,4]diazepin-3-yl)-amide]	63	8.4	–
O=C(N[C@H]1N=C(c2ccccc2)c2ccccc2NC1=O)c1cccc2cc[nH]c12 [Example 81b]	35.6	–	IC50 (RSV [1]): 1.2 µM
COc1cc2ccccc2cc1C(=O)NC1N=C(c2ccccc2)c2ccccc2NC1=O (stereo not shown) [Example 82a, 3-Methoxy-naphthalene-2-carboxylic acid (2-oxo-5-phenyl-2,3-dihydro-1H-benzo[e][1,4]diazepin-3-yl)-amide]	>50	6.7	–
COc1cc2ccccc2cc1C(=O)N[C@H]1N=C(c2ccccc2)c2ccccc2NC1=O [Example 82b, (S)-3-Methoxy-naphthalene-2-carboxylic acid (2-oxo-5-phenyl-2,3-dihydro-1H-benzo[e][1,4]diazepin-3-yl)-amide]	>50	1.5	–
O=C(Nc1ccc([N+](=O)[O-])cc1)NC1N=C(c2ccccc2)c2ccccc2NC1=O (stereo not shown) [Example 122, 1-(4-Nitro-phenyl)-3-(2-oxo-5-phenyl-2,3-dihydro-1H-benzo[e][1,4]diazepin-3-yl)-urea]	–	–	IC50 (RSV [2]; [4]): 0.4 µM; TC50 (2d) (Vero cells): 60; TC50 (6d) (Vero cells): 20
CSc1ccccc1NC(=O)NC1N=C(c2ccccc2)c2ccccc2NC1=O (stereo not shown) [Example 123, 1-(2-Methylsulfanyl-phenyl)-3-(2-oxo-5-phenyl-2,3-dihydro-1H-benzo[e][1,4]diazepin-3-yl)-urea]	–	–	IC50 (RSV [2]; [4]): 2 µM; TC50 (2d) (Vero cells): >100; TC50 (6d) (Vero cells): 100
O=C(Nc1c(Cl)cccc1Cl)NC1N=C(c2ccccc2)c2ccccc2NC1=O (stereo not shown) [Example 124, 1-(2,6-Dichloro-phenyl)-3-(2-oxo-5-phenyl-2,3-dihydro-1H-benzo[e][1,4]diazepin-3-yl)-urea]	–	–	IC50 (RSV [2]; [4]): 5 µM; TC50 (2d) (Vero cells): 70; TC50 (6d) (Vero cells): 60
COc1ccc(C(C)(C)C)cc1C(=O)NC1N=C(c2ccccc2)c2ccccc2NC1=O (stereo not shown) [Example 125, 5-tert-Butyl-2-methoxy-N-(2-oxo-5-phenyl-2,3-dihydro-1H-benzo[e][1,4]diazepin-3-yl)-benzamide]	>50	6.1	–
COc1ccc(OC)c(C(=O)NC2N=C(c3ccccc3)c3ccccc3NC2=O)c1 (stereo not shown) [Example 126, 2,5-Dimethoxy-N-(2-oxo-5-phenyl-2,3-dihydro-1H-benzo[e][1,4]diazepin-3-yl)-benzamide]	>50	5.4	–
O=C(Nc1c(F)cccc1F)NC1N=C(c2ccccc2)c2ccccc2NC1=O (stereo not shown) [Example 127, 1-(2,6-Difluoro-phenyl)-3-(2-oxo-5-phenyl-2,3-dihydro-1H-benzo[e][1,4]diazepin-3-yl)-urea]	>50	9.4	–
N-[5-(3-Chloro-phenyl)-2-oxo-5-phenyl-2,3-dihydro-1H-benzo[e][1,4]diazepin-3-yl]-2-nitro-benzamide [Example 101]	–	–	IC50 (RSV [2]; [5]): 2.5 µM; TC50 (2d) (Vero cells): 100; TC50 (6d) (Vero cells): 100
N-[5-(3-Chloro-phenyl)-2-oxo-5-phenyl-2,3-dihydro-1H-benzo[e][1,4]diazepin-3-yl]-4-methoxy-benzamide [Example 100]	–	–	IC50 (RSV [2]; [5]): 4 µM; TC50 (2d) (Vero cells): >100; TC50 (6d) (Vero cells): 100
N-[5-(3-Chloro-phenyl)-2-oxo-5-phenyl-2,3-dihydro-1H-benzo[e][1,4]diazepin-3-yl]-4-nitro-benzamide [Example 102]	–	–	IC50 (RSV [2]; [5]): 7 µM; TC50 (2d) (Vero cells): >100; TC50 (6d) (Vero cells): >100
N-[5-(3-Methoxy-phenyl)-2-oxo-5-phenyl-2,3-dihydro-1H-benzo[e][1,4]diazepin-3-yl]nitro-benzamide [Example 110]	–	–	IC50 (RSV [2]; [5]): 5 µM; TC50 (2d) (Vero cells): >100; TC50 (6d) (Vero cells): >100
